Results reported in the NIST ThermoML archive (doi:10.1016/j.fluid.2010.01.023).
Several values for one entry are separate records, joined by “and”; a condition that tells them apart may be missing. Equal values may be shown once.

Assay: xn = mol fraction of the nth substance listed
Settings: Fluid (supercritical or subcritical phases), quasistatic thermogram and barogram, x2 = 0.7393

N [ammonia] + O
Settings | thermal pressure coefficient
601.11 K, Mass density=320.33 kg/m3 | 257 kPa/K
601.16 K, Mass density=188.05 kg/m3 | 186 kPa/K and 168 kPa/K
601.19 K, Mass density=227.54 kg/m3 | 200 kPa/K
601.28 K, Mass density=214.43 kg/m3 | 203 kPa/K
601.28 K, Mass density=301.94 kg/m3 | 234 kPa/K
601.34 K, Mass density=285.71 kg/m3 | 196 kPa/K and 222 kPa/K
601.37 K, Mass density=206.01 kg/m3 | 199 kPa/K
601.37 K, Mass density=224.53 kg/m3 | 201 kPa/K
601.45 K, Mass density=297.6 kg/m3 | 225 kPa/K
601.45 K, Mass density=299.79 kg/m3 | 239 kPa/K
601.54 K, Mass density=295.31 kg/m3 | 238 kPa/K
601.71 K, Mass density=230.31 kg/m3 | 202 kPa/K
601.71 K, Mass density=376.89 kg/m3 | 327 kPa/K
601.75 K, Mass density=195.99 kg/m3 | 195 kPa/K and 181 kPa/K
602.05 K, Mass density=218.92 kg/m3 | 201 kPa/K
602.05 K, Mass density=271.09 kg/m3 | 197 kPa/K and 217 kPa/K
602.22 K, Mass density=312.91 kg/m3 | 261 kPa/K
602.26 K, Mass density=206.01 kg/m3 | 199 kPa/K and 188 kPa/K
602.31 K, Mass density=307.35 kg/m3 | 241 kPa/K
602.39 K, Mass density=376.89 kg/m3 | 320 kPa/K
602.45 K, Mass density=260.02 kg/m3 | 199 kPa/K and 215 kPa/K
602.65 K, Mass density=456.58 kg/m3 | 458 kPa/K
602.74 K, Mass density=214.43 kg/m3 | 202 kPa/K and 195 kPa/K
602.74 K, Mass density=342.18 kg/m3 | 286 kPa/K
602.85 K, Mass density=218.92 kg/m3 | 202 kPa/K and 198 kPa/K
602.91 K, Mass density=243.97 kg/m3 | 202 kPa/K and 208 kPa/K
602.96 K, Mass density=224.53 kg/m3 | 202 kPa/K and 200 kPa/K
602.96 K, Mass density=230.31 kg/m3 | 202 kPa/K and 204 kPa/K
602.97 K, Mass density=227.54 kg/m3 | 202 kPa/K and 203 kPa/K
603.08 K, Mass density=311.19 kg/m3 | 256 kPa/K
603.34 K, Mass density=206.01 kg/m3 | 182 kPa/K
603.76 K, Mass density=218.92 kg/m3 | 196 kPa/K
603.85 K, Mass density=214.43 kg/m3 | 191 kPa/K
603.85 K, Mass density=227.54 kg/m3 | 203 kPa/K
604.11 K, Mass density=224.53 kg/m3 | 200 kPa/K
604.11 K, Mass density=230.31 kg/m3 | 205 kPa/K
604.36 K, Mass density=243.97 kg/m3 | 210 kPa/K
605.39 K, Mass density=329 kg/m3 | 275 kPa/K
605.47 K, Mass density=147.43 kg/m3 | 120 kPa/K
606.58 K, Mass density=376.89 kg/m3 | 333 kPa/K
606.76 K, Mass density=195.99 kg/m3 | 172 kPa/K
607.78 K, Mass density=342.18 kg/m3 | 290 kPa/K
607.95 K, Mass density=376.89 kg/m3 | 332 kPa/K
608.04 K, Mass density=309.95 kg/m3 | 261 kPa/K
608.55 K, Mass density=160.07 kg/m3 | 131 kPa/K
609.42 K, Mass density=320.33 kg/m3 | 279 kPa/K
609.48 K, Mass density=195.99 kg/m3 | 168 kPa/K
609.71 K, Mass density=308.35 kg/m3 | 272 kPa/K
609.99 K, Mass density=295.31 kg/m3 | 250 kPa/K
610.25 K, Mass density=312.91 kg/m3 | 270 kPa/K
610.59 K, Mass density=311.19 kg/m3 | 265 kPa/K
610.85 K, Mass density=307.35 kg/m3 | 266 kPa/K
611.44 K, Mass density=299.79 kg/m3 | 257 kPa/K
611.55 K, Mass density=342.18 kg/m3 | 299 kPa/K
611.61 K, Mass density=230.31 kg/m3 | 209 kPa/K
611.61 K, Mass density=301.94 kg/m3 | 259 kPa/K
612.63 K, Mass density=376.89 kg/m3 | 342 kPa/K
615.35 K, Mass density=160.07 kg/m3 | 131 kPa/K
616.03 K, Mass density=311.19 kg/m3 | 277 kPa/K
616.12 K, Mass density=312.91 kg/m3 | 269 kPa/K
616.28 K, Mass density=309.95 kg/m3 | 261 kPa/K
616.37 K, Mass density=329 kg/m3 | 285 kPa/K
617.05 K, Mass density=299.79 kg/m3 | 260 kPa/K
618.4 K, Mass density=342.18 kg/m3 | 304 kPa/K
620.1 K, Mass density=297.6 kg/m3 | 260 kPa/K
624.91 K, Mass density=160.07 kg/m3 | 132 kPa/K
633.33 K, Mass density=160.07 kg/m3 | 134 kPa/K
